In patent US8207142B2, “Inhibitor of DNA methylation” (priority 2001, dated 2012):
Values joined by “and” are separate entries in the source; they are usually repeats but may differ in a detail not shown here. Identical values can stand only once.

Assays:
p3 locus = test: Ms-SNuPE quantitation of DNA methylation in 10T1/2 cells; format: cell-based, mouse; conditions: 24 hours, control 86
Description: (§1) The average methylation at defined CpG sites was quantitated using a Ms-SNuPE assay, as described by Gonzalgo and Jones (Nucleic Acids Res. 25:2529-2531, 1997) and U.S. Pat. No. 6,251,594. Briefly, genomic DNA (˜4 μg) was digested overnight with 4 units of EcoRI (Boehringer Mannheim) (p16 promoter/exon 1 and p16 exon 2; FIG. 9A) or with 4 units of RsaI (Boehringer Mannheim) (P3; FIG. 9B) to cut outside the region of interest.
(§2) After standard treatment with sodium bisulfite, a PCR product of the region was generated as template for top-strand methylation analysis. The sequences of the primers used for bisulfite-treated DNA amplification were as follows: […]
P3: 95° C. for 2 minutes, 95° C. for 1 minute, 50° C. for 50 seconds, and 72° C. for 1 minute for 40 cycles, with a final extension at 72° C. for 10 minutes.
(§3) Duplicates of 4 μl of template were then added to 6 μl of mixture consisting of 1× PCR buffer, 1 μM final concentration primers, 1 μCi of [^32P]dCTP or dTTP, and 1 unit 1:1 Taq/TaqStart antibody (Clontech, Palo Alto, Calif.). Single nucleotide extension involved incubation at 95° C. for 1 minute, then 50° C. for 2 minutes, and finally 72° C. for 1 minute (p16 promoter/exon1 and P16 exon 2) and 95° C. for 1 minute, then 46° C. for 30 seconds, and finally 72° C. for 20 seconds (P3). The sequences for SNuPE primers were as follows: […]
(§4) After briefly spinning down the tubes, 4 μl of stop solution were added to the 10-μl reaction volume, and the samples were boiled for 5 minutes at 95° C. before loading 1.5 μl onto a 15% denaturing polyacrylamide gel (7 M urea). The gel was run at 90 W for 1.5 hours and then dried at 80° C. for 40 minutes. The gel was exposed to a phosphorimaging cassette for quantitation of the ratio of [^32P]dCTP versus [^32P]dTTP incorporation, and the quantitation of the percent methylation was averaged from three separate CpG sites. The gel was then exposed to BioMax MR film (Kodak) to record experimental results.

p16 promoter = test: Ms-SNuPE quantitation of DNA methylation in T24 cells, p16 promoter; format: cell-based, human; conditions: control 96
Description: as §1, §2
p16 promoter/exon 1: 94° C. for 3 minutes, 94° C. for 45 seconds, 67° C. for 45 seconds, and 72° C. for 45 seconds for 40 cycles, with a final extension step at 72° C. for 10 minutes.
as §3, §4

10T1/2 cells = test: Colony-formation assay (plating efficiency) in 10T1/2 cells; format: cell-based, mouse; conditions: for Ave. Plating Efficiency (%): 250 cells, stained after 14-16 days, control 22; for decrease in plating deficiency (cytotoxicity) / cell death observed: 10T1/2 cells; for cell death observed: 0.3 μM 5-Aza-CdR, 3 μM 5-Aza-CR, 30 μM Zebularine
Description: The percentage cell survival was assessed by dividing the mean colony number on the treated plates divided by the mean colony number on the untreated plates ×100.

[1] = system: DNA methylation of the am^RIP and ψ63 sequences; test: Southern blot analysis of DNA methylation in N. crassa (Dpn II vs Sau3AI digests); format: cell-based, Neurospora crassa; conditions: 12 and 24 μM 5-AC; 0.33 and 3.3 μM TSA; 20, 39, 78, 160 and 310 μM Zebularine
Description: DNA was digested with Dpn II (D) or Sau3AI (S), fractionated by gel electrophoresis, transferred to a membrane and probed for am (FIG. 4A) or ψ63 (FIG. 4B) sequences. Dpn II and Sau3AI both recognize the sequence GATC, but Sau3AI fails to cleave if the C residue is methylated. Thus, differences between S and D lanes are indicative of DNA methylation.
The ramp symbols at the top of the figure represent increasing concentrations of drug. Drug concentrations were 12 and 24 μM 5-AC; 0.33 and 3.3 μM TSA; and 20, 39, 78, 160 and 310 μM Zebularine. The positions of selected size standards (kb) are indicated.
Southern hybridizations were performed on DNA samples (−1 μg) isolated from liquid cultures inoculated with 7×10^4 conidia/ml. DNA was digested with Dpn II (D) or Sau3AI (S), fractionated by gel electrophoresis, transferred to a nylon membrane and probed for am^RIP (FIG. 4A) or ψ63 (FIG. 4B) sequences. The restriction endonucleases Dpn II and-Sau3AI both recognize the sequence GATC, but Sau3AI fails to cleave if the C residue is methylated. Drug concentrations were […] 5-AC, 0.33 and 3.3 μM TSA, and […] Zebularine.
The positions of selected size standards (kb) and the origin (ori) are indicated. […] Differences between S and D lanes are indicative of DNA methylation.

silenced hph gene = test: Plate assay, reactivation of the methylation-silenced hph gene (hygromycin resistance), strain N644; format: cell-based, Neurospora crassa; conditions: 2.5-400 nmoles on paper disc
Description: FIG. 5 is a series of photographs of plate assays, showing reactivation of the silenced hph gene in Neurospora crassa by Zebularine. N. crassa strain N644 has a single copy of the E. coli hph gene that was silenced by cytosine methylation. The active hph gene confers hygromycin resistance.
Treatments are indicated above each plate; the listed compound was applied to the paper discs in the middle of each plate. With the exception of the “no hygromycin” plate, all plates had 5 mg hygromycin B added in a 5 ml 0.7% agar overlay after 24 hours growth at 32° C. The plates were then incubated an additional two days at the same temperature and photographed.
Plate tests were performed with solidified medium essentially as previously described (Selker, Proc. Natl. Acad. Sci. USA 95;9430-9435, 1998). In brief, approximately 2,000 N. crassa conidia of the indicated were plated on each plate. Drugs were administered from a 4-mm diameter Whatman™ no. 1 paper disk placed in the middle of each plate shortly after plating.
N. crassa was used to quantitatively examine the effectiveness of Zebularine at reducing or reversing methylation (Selker, Proc. Natl. Acad. Sci. USA, 95:9430-9435, 1998). […]

## Nc1ncn([C@@H]2O[C@H](CO)[C@@H](O)[C@H]2O)c(=O)n1 [5-Aza-CR, 5-azacytidine, reference compound]
p3 locus; 1 μM
  % Methylation: 65 +/− 2%
p3 locus; 3 μM
  % Methylation: 59% and 59 +/− 6%
p16 promoter; 3 μM, 24 hrs
  p16 Promoter Methylation (%): 91% and 91 +/− 1%
p16 promoter; 10 μM, 24 hrs
  p16 Promoter Methylation (%): 83 +/− 2%
p16 promoter; 30 μM, 24 hrs
  p16 Promoter Methylation (%): 73 +/− 2%
p16 promoter; 100 μM, 24 hrs
  p16 Promoter Methylation (%): 68% and 68 +/− 2%
10T1/2 cells; 1 μM
  Ave. Plating Efficiency (%): 21%
10T1/2 cells; 3 μM
  decrease in plating deficiency (cytotoxicity): 24%
  Ave. Plating Efficiency (%): 16%
10T1/2 cells
  cell death observed: appreciable cell death
[1]
  effect on DNA methylation (Southern blot): inhibits DNA methylation globally

## O=c1ncccn1[C@@H]1O[C@H](CO)[C@@H](O)[C@H]1O [Zebularine, 1-β-ribofuranosyl-1,2-dihydropyrimidin-2-one]
p3 locus; 10 μM
  % Methylation: 75 +/− 2%
p3 locus; 30 μM
  % Methylation: 58% and 58 +/− 1%
p16 promoter; 300 μM, 24 hrs
  p16 Promoter Methylation (%): 91% and 91 +/− 1%
p16 promoter; 300 μM, 48 hrs
  p16 Promoter Methylation (%): 80% and 80 +/− 1%
p16 promoter; 500 μM, 24 hrs
  p16 Promoter Methylation (%): 85% and 85 +/− 1%
p16 promoter; 500 μM, 48 hrs
  p16 Promoter Methylation (%): 77% and 77 +/− 2%
p16 promoter; 1000 μM, 24 hrs
  p16 Promoter Methylation (%): 72% and 72 +/− 2%
p16 promoter; 1000 μM, 48 hrs
  p16 Promoter Methylation (%): 68% and 68 +/− 2%
Silenced hph gene
  reactivation of silenced hph gene (conidia growth on hygromycin): reactivate the hph gene
10T1/2 cells; 10 μM
  Ave. Plating Efficiency (%): 20%
10T1/2 cells; 30 μM
  Ave. Plating Efficiency (%): 18%
10T1/2 cells
  decrease in plating deficiency (cytotoxicity): 17%
  cell death observed: only very little cell death
[1]
  effect on DNA methylation (Southern blot): inhibits DNA methylation globally
